Legend:
[1] = molar heat capacity at constant pressure; xn = mol fraction of the nth substance listed; conditions: 101 kPa, Liquid, Small sample (50 mg) DSC
[2] = xn = mol fraction of the nth substance listed; conditions: 101 kPa, Liquid; for speed of sound: Pulse-echo method; for mass density: Vibrating tube method

Cc1ccccc1Cl [2-chlorotoluene] + C1COCCO1
Conditions	mass density [kg/m3]	molar heat capacity at constant pressure [J/K/mol]	speed of sound [m/s]
[1], 298.15 K, x1 = 0.0903	–	155.43	–
[1], 298.15 K, x1 = 0.1278	–	156.54	–
[1], 298.15 K, x1 = 0.1654	–	157.65	–
[1], 298.15 K, x1 = 0.2006	–	158.69	–
[1], 298.15 K, x1 = 0.2343	–	159.68	–
[1], 298.15 K, x1 = 0.2765	–	160.9	–
[1], 298.15 K, x1 = 0.3004	–	161.59	–
[1], 298.15 K, x1 = 0.3421	–	162.78	–
[1], 298.15 K, x1 = 0.3876	–	164.06	–
[1], 298.15 K, x1 = 0.4002	–	164.41	–
[1], 298.15 K, x1 = 0.4327	–	165.31	–
[1], 298.15 K, x1 = 0.4726	–	166.39	–
[1], 298.15 K, x1 = 0.5117	–	167.43	–
[1], 298.15 K, x1 = 0.5401	–	168.17	–
[1], 298.15 K, x1 = 0.5915	–	169.49	–
[1], 298.15 K, x1 = 0.6305	–	170.45	–
[1], 298.15 K, x1 = 0.6721	–	171.46	–
[1], 298.15 K, x1 = 0.7198	–	172.57	–
[1], 298.15 K, x1 = 0.7401	–	173.03	–
[1], 298.15 K, x1 = 0.7623	–	173.53	–
[1], 298.15 K, x1 = 0.8004	–	174.36	–
[1], 298.15 K, x1 = 0.8432	–	175.26	–
[1], 298.15 K, x1 = 0.8856	–	176.11	–
[1], 298.15 K, x1 = 0.9165	–	176.7	–
[1], 303.15 K, x1 = 0.0903	–	156.69	–
[1], 303.15 K, x1 = 0.1278	–	157.84	–
[1], 303.15 K, x1 = 0.1654	–	158.98	–
[1], 303.15 K, x1 = 0.2006	–	160.04	–
[1], 303.15 K, x1 = 0.2343	–	161.05	–
[1], 303.15 K, x1 = 0.2765	–	162.3	–
[1], 303.15 K, x1 = 0.3004	–	163	–
[1], 303.15 K, x1 = 0.3421	–	164.21	–
[1], 303.15 K, x1 = 0.3876	–	165.52	–
[1], 303.15 K, x1 = 0.4002	–	165.87	–
[1], 303.15 K, x1 = 0.4327	–	166.79	–
[1], 303.15 K, x1 = 0.4726	–	167.9	–
[1], 303.15 K, x1 = 0.5117	–	168.97	–
[1], 303.15 K, x1 = 0.5401	–	169.73	–
[1], 303.15 K, x1 = 0.5915	–	171.09	–
[1], 303.15 K, x1 = 0.6305	–	172.09	–
[1], 303.15 K, x1 = 0.6721	–	173.13	–
[1], 303.15 K, x1 = 0.7198	–	174.28	–
[1], 303.15 K, x1 = 0.7401	–	174.76	–
[1], 303.15 K, x1 = 0.7623	–	175.27	–
[1], 303.15 K, x1 = 0.8004	–	176.13	–
[1], 303.15 K, x1 = 0.8432	–	177.05	–
[1], 303.15 K, x1 = 0.8856	–	177.92	–
[1], 303.15 K, x1 = 0.9165	–	178.52	–
[1], 308.15 K, x1 = 0.0903	–	158.03	–
[1], 308.15 K, x1 = 0.1278	–	159.2	–
[1], 308.15 K, x1 = 0.1654	–	160.36	–
[1], 308.15 K, x1 = 0.2006	–	161.44	–
[1], 308.15 K, x1 = 0.2343	–	162.46	–
[1], 308.15 K, x1 = 0.2765	–	163.73	–
[1], 308.15 K, x1 = 0.3004	–	164.44	–
[1], 308.15 K, x1 = 0.3421	–	165.66	–
[1], 308.15 K, x1 = 0.3876	–	166.99	–
[1], 308.15 K, x1 = 0.4002	–	167.35	–
[1], 308.15 K, x1 = 0.4327	–	168.28	–
[1], 308.15 K, x1 = 0.4726	–	169.41	–
[1], 308.15 K, x1 = 0.5117	–	170.5	–
[1], 308.15 K, x1 = 0.5401	–	171.28	–
[1], 308.15 K, x1 = 0.5915	–	172.67	–
[1], 308.15 K, x1 = 0.6305	–	173.7	–
[1], 308.15 K, x1 = 0.6721	–	174.77	–
[1], 308.15 K, x1 = 0.7198	–	175.95	–
[1], 308.15 K, x1 = 0.7401	–	176.44	–
[1], 308.15 K, x1 = 0.7623	–	176.97	–
[1], 308.15 K, x1 = 0.8004	–	177.84	–
[1], 308.15 K, x1 = 0.8432	–	178.78	–
[1], 308.15 K, x1 = 0.8856	–	179.66	–
[1], 308.15 K, x1 = 0.9165	–	180.26	–
[2], 298.15 K, x1 = 0.0984	1033.4	–	1338.2
[2], 298.15 K, x1 = 0.1643	1036.9	–	1333.2
[2], 298.15 K, x1 = 0.2124	1039.5	–	1329.9
[2], 298.15 K, x1 = 0.2837	1043.3	–	1325.3
[2], 298.15 K, x1 = 0.3427	1046.3	–	1321.8
[2], 298.15 K, x1 = 0.3918	1048.9	–	1319.1
[2], 298.15 K, x1 = 0.4375	1051.2	–	1316.8
[2], 298.15 K, x1 = 0.4864	1053.6	–	1314.5
[2], 298.15 K, x1 = 0.5237	1055.5	–	1312.8
[2], 298.15 K, x1 = 0.5765	1058.1	–	1310.7
[2], 298.15 K, x1 = 0.6237	1060.4	–	1308.8
[2], 298.15 K, x1 = 0.6801	1063	–	1306.9
[2], 298.15 K, x1 = 0.7135	1064.6	–	1305.8
[2], 298.15 K, x1 = 0.7737	1067.4	–	1304
[2], 298.15 K, x1 = 0.8125	1069.2	–	1302.9
[2], 298.15 K, x1 = 0.8635	1071.4	–	1301.7
[2], 298.15 K, x1 = 0.9012	1073.1	–	1300.8
[2], 298.15 K, x1 = 0.9415	1074.9	–	1299.9
[2], 303.15 K, x1 = 0.0984	1027.7	–	1316.6
[2], 303.15 K, x1 = 0.1643	1031.3	–	1312
[2], 303.15 K, x1 = 0.2124	1033.9	–	1308.9
[2], 303.15 K, x1 = 0.2837	1037.8	–	1304.6
[2], 303.15 K, x1 = 0.3427	1040.9	–	1301.5
[2], 303.15 K, x1 = 0.3918	1043.5	–	1299
[2], 303.15 K, x1 = 0.4375	1045.9	–	1296.9
[2], 303.15 K, x1 = 0.4864	1048.4	–	1294.8
[2], 303.15 K, x1 = 0.5237	1050.3	–	1293.2
[2], 303.15 K, x1 = 0.5765	1052.9	–	1291.2
[2], 303.15 K, x1 = 0.6237	1055.2	–	1289.6
[2], 303.15 K, x1 = 0.6801	1057.9	–	1287.7
[2], 303.15 K, x1 = 0.7135	1059.5	–	1286.7
[2], 303.15 K, x1 = 0.7737	1062.3	–	1285
[2], 303.15 K, x1 = 0.8125	1064.1	–	1284.1
[2], 303.15 K, x1 = 0.8635	1066.4	–	1283
[2], 303.15 K, x1 = 0.9012	1068.1	–	1282.2
[2], 303.15 K, x1 = 0.9415	1069.9	–	1281.5
[2], 308.15 K, x1 = 0.0984	1022	–	1295.1
[2], 308.15 K, x1 = 0.1643	1025.6	–	1290.8
[2], 308.15 K, x1 = 0.2124	1028.3	–	1287.9
[2], 308.15 K, x1 = 0.2837	1032.3	–	1284
[2], 308.15 K, x1 = 0.3427	1035.5	–	1281.2
[2], 308.15 K, x1 = 0.3918	1038.2	–	1279
[2], 308.15 K, x1 = 0.4375	1040.6	–	1277
[2], 308.15 K, x1 = 0.4864	1043.1	–	1275.1
[2], 308.15 K, x1 = 0.5237	1045.1	–	1273.8
[2], 308.15 K, x1 = 0.5765	1047.7	–	1271.9
[2], 308.15 K, x1 = 0.6237	1050.1	–	1270.4
[2], 308.15 K, x1 = 0.6801	1052.8	–	1268.7
[2], 308.15 K, x1 = 0.7135	1054.4	–	1267.8
[2], 308.15 K, x1 = 0.7737	1057.2	–	1266.3
[2], 308.15 K, x1 = 0.8125	1059	–	1265.4
[2], 308.15 K, x1 = 0.8635	1061.4	–	1264.4
[2], 308.15 K, x1 = 0.9012	1063.1	–	1263.8
[2], 308.15 K, x1 = 0.9415	1064.9	–	1263.3

— the NIST ThermoML archive (doi:10.1021/je400722h)
